Experimental data as given in patent US8871753B2, “Macrocyclic compounds and their use as kinase inhibitors” (Incyte Corporation, priority 2008, dated 2014).
Structures can show the parent of a compound that is named as a salt. Where two headings read alike, the source gives them in different places.

How the values were obtained:
Assay type in all cases: biochemical
[1] = biological target: T1, human JAK2 (a.a. 828-1132) (Homo sapiens, UniProt O60674); test: In vitro JAK kinase assay (HTRF, phosphorylation of a biotinylated peptide), JAK2
T1 construct: JAK2 (a.a. 828-1132); His tag (N); made in house; host or cells: insect cells (baculovirus)
Outline: (§1)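 Kinase reactions ran at room temperature for 1 h with ATP matched per isoform (JAK1 90 μM, JAK2 30 μM, JAK3 3 μM). After an EDTA stop, the phosphorylated biotin-peptide was read by HTRF using Eu-Py20 and SA-APC after 40 min binding.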

[2] = biological target: T2, human JAK1 (a.a. 837-1142) (Homo sapiens, UniProt P23458); test: In vitro JAK kinase assay (HTRF, phosphorylation of a biotinylated peptide), JAK1; conditions: read-out: JAK1 IC50
T2 construct: human JAK1 (a.a. 837-1142); His tag (N); made in house; host or cells: insect cells (baculovirus)
Outline: as §1

TYK2 = TYK2 (Homo sapiens, UniProt P29597); test: TYK2 kinase inhibition (Table A1)
[3] = biological target: T3, human JAK3 (a.a. 781-1124) (Homo sapiens, UniProt P52333); test: In vitro JAK kinase assay (HTRF, phosphorylation of a biotinylated peptide), JAK3
T3 construct: JAK3 (a.a. 781-1124); His tag (N); made in house; host or cells: insect cells (baculovirus)
Outline: as §1

[4] = biological target: T4, Recombinant Human Anaplastic Lymphoma Kinase (Homo sapiens, UniProt Q9UM73); test: ALK HTRF kinase assay
T4 construct: purchased Invitrogen, Carlsbad, Calif
Outline: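 Biotinylated peptide substrate, recombinant human ALK; detection via europium-chelate antibody to phosphotyrosine paired with streptavidin-APC. Potency expressed as IC50 from four-parameter curve fitting.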

[5] = method AA1 (30 μM ATP) or AA2 (1000 μM ATP), not stated per value
[6] = method AA1 (90 μM ATP) or AA2 (1000 μM ATP), not stated per value
[7] = method AA1 (3 μM ATP) or AA2 (1000 μM ATP), not stated per value
[8] = compound at 500 nM or 1 mM, 90 μM ATP
[9] = compound at a concentration of 500 nM or 1 mM (not specified), cells shown as percentage

Sequence of TYK2 (P29597 whole entry): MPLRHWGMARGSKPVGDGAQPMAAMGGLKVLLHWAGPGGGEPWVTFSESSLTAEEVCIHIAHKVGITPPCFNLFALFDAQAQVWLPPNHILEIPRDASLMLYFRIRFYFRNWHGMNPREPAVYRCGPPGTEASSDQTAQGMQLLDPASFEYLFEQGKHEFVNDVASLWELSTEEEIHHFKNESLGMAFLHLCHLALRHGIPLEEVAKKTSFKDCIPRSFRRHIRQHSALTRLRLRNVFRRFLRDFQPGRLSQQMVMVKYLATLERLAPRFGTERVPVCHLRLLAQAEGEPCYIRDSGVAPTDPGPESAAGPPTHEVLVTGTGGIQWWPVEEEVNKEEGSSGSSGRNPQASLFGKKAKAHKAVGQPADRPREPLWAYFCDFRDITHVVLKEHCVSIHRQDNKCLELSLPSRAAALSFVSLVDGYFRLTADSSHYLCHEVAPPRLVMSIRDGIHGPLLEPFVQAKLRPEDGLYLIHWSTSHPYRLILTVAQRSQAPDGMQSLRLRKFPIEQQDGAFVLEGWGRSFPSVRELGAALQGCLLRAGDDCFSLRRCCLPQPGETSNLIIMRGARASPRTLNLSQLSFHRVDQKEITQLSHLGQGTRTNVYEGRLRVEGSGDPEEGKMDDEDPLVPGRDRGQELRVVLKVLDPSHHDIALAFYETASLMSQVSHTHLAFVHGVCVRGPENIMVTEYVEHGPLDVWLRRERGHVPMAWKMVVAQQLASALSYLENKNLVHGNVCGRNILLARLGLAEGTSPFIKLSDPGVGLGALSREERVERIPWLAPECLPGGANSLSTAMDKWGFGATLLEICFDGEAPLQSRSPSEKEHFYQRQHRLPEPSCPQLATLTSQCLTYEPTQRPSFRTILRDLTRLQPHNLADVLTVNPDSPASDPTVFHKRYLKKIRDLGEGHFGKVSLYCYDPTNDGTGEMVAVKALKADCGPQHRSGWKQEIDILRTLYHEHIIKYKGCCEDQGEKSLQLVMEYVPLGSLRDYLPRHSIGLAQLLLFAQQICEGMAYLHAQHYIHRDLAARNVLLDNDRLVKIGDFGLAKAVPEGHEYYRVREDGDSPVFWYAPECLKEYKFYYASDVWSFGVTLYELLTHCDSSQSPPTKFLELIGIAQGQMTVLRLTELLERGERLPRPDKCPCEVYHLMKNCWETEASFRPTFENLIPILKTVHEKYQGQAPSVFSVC
T1 sequence (O60674 828-1132): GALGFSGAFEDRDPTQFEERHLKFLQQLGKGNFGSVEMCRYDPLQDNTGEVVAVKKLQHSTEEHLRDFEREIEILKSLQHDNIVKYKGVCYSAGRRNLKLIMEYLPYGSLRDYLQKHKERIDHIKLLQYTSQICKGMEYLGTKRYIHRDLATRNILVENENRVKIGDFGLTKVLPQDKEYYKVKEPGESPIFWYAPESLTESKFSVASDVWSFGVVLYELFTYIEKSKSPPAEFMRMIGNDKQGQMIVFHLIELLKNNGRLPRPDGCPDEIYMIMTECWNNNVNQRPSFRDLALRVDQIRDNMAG
T3 sequence (P52333 781-1124): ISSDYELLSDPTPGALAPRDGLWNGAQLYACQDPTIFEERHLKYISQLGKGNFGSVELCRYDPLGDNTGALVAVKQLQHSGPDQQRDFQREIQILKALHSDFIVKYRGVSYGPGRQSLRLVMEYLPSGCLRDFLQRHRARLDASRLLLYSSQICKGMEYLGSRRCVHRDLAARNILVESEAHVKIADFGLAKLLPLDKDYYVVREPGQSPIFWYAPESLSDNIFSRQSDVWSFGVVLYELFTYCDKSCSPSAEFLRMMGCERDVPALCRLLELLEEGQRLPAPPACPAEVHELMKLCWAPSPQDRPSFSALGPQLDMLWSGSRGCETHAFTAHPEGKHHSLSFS
T4 sequence (Q9UM73 19-1620): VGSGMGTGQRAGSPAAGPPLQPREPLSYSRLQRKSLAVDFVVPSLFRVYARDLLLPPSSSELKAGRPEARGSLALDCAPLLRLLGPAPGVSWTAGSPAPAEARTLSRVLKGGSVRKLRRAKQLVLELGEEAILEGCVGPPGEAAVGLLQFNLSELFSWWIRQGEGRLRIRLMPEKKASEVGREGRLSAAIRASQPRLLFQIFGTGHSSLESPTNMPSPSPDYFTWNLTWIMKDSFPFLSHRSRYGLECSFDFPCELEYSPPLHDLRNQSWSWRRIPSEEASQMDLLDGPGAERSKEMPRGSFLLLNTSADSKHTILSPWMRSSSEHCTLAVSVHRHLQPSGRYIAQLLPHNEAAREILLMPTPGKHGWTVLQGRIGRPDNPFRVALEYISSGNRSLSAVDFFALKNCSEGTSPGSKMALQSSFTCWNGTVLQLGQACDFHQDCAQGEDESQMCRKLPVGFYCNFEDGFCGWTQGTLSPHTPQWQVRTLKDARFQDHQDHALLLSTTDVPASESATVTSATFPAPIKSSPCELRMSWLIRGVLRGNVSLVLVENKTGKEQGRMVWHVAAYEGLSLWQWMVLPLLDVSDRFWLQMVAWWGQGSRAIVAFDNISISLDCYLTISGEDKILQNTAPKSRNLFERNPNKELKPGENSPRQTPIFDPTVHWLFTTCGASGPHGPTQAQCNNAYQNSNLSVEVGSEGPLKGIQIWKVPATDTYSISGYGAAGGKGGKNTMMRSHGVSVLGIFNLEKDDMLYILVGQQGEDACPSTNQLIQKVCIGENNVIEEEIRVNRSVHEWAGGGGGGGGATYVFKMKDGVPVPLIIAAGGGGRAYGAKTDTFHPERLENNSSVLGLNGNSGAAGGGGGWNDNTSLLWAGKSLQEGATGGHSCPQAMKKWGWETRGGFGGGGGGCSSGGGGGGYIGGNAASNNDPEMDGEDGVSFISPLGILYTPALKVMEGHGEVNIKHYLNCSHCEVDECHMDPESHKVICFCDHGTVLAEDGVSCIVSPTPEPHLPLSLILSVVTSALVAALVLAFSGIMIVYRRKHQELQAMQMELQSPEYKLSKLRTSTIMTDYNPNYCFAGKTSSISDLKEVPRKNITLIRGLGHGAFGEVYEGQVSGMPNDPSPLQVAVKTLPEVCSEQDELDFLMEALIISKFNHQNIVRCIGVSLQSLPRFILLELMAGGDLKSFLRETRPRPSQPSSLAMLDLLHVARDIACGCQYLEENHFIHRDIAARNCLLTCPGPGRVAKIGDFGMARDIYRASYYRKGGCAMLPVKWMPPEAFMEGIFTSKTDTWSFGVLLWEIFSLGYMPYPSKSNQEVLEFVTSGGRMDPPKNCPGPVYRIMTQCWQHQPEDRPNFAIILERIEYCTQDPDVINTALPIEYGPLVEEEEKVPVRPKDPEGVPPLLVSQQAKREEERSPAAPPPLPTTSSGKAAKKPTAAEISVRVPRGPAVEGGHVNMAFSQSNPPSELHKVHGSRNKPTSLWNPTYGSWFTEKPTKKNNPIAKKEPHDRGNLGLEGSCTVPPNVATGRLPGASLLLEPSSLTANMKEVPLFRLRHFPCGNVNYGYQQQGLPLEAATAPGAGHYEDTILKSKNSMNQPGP
T2 sequence (P23458 849-1154): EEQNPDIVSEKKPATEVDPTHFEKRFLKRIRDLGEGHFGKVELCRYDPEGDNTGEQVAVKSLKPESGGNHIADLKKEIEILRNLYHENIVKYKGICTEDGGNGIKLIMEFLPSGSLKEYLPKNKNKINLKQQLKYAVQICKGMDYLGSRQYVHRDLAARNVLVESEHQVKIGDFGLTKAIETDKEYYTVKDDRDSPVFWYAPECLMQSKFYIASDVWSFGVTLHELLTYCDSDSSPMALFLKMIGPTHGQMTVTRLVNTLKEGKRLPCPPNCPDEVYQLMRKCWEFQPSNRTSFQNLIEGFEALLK

SMILES	IC50 [1, 5]	IC50 [2, 6]	IC50 (TYK2)	IC50 [3, 7]	ALK % of inhibition at a concentration of 500 nM or 1 mM [4, 8]	IC50 ([1]; Table B1)	IC50 ([2]; Table B1)	IC50 (TYK2; Table B1)	IC50 ([3]; Table B1)	ALK % of inhibition at a concentration of 500 nM or 1 mM [4, 9]	also measured
CCC(=O)N1CCC(CC(=O)Nc2ccc3cc2CCc2cncc(c2)Nc2ncc(Cl)c(n2)N3)CC1 [Example A104, N-[6-Chloro-2,4,8,18,22-pentaazatetracyclo[14.3.1.1(3,7).1(9,13)]docosa-1(20),3(22),4,6,9(21),10,12,16,18-nonaen-12-yl]-2-(1-propionylpiperidin-4-yl)acetamide bis(trifluoroacetate)]	0.0083 µM	0.081 µM	0.0044 µM	0.148 µM	26%	–	–	–	–	–	–
O=C(CC1CCN(C(=O)Nc2ccccc2)C1)Nc1ccc2cc1CCc1cncc(c1)Nc1ncc(Cl)c(n1)N2 (stereo not shown) [Example A92, 3-(2-{[6-Chloro-2,4,8,18,22-pentaazatetracyclo[14.3.1.1(3,7).1(9,13)]docosa-1(20),3(22),4,6,9(21),10,12,16,18-nonaen-12-yl]amino}-2-oxoethyl)-N-phenylpyrrolidine-1-carboxamide bis(trifluoroacetate)]	0.0061 µM	0.0014 µM	0.021 µM	0.079 µM	61%	–	–	–	–	–	–
O=S1(=O)Cc2cccc(c2)Nc2nc(ncc2Cl)Nc2cccc1c2 [Example D4, 6-Chloro-15-thia-2,4,8,22-tetraazatetracyclo[14.3.1.1(3,7).1(9,13)]docosa-1(20),3(22),4,6,9(21),10,12,16,18-nonaene 15,15-dioxide trifluoroacetate]	–	–	–	–	–	–	–	–	–	–	IC50 ([1]; Table D1): 0.016 µM; IC50 ([2]; Table D1): 0.091 µM; IC50 (TYK2; Table D1): 0.05 µM; IC50 ([3]; Table D1): 0.025 µM; IC50 ([4]; Table D1, 90 μM ATP): 0.774 µM
N[C@@H](CO)C(=O)Nc1ccc2cc1CCc1cccc(c1)Nc1ncc(Cl)c(n1)N2 [Example A109, (2S)-2-Amino-N-[6-chloro-2,4,8,22-tetraazatetracyclo[14.3.1.1(3,7).1(9,13)]docosa-1(20),3(22),4,6,9(21),10,12,16,18-nonaen-12-yl]-3-hydroxypropanamide bis(trifluoroacetate)]	0.011 µM	0.005 µM	0.0075 µM	0.0073 µM	33%	–	–	–	–	–	–
O=C1CCc2cccc(c2)Nc2nc(ncc2Cl)Nc2cccc1c2 [Example A5, 6-Chloro-2,4,8,23-tetraazatetracyclo[15.3.1.1(3,7).1(9,13)]tricosa-1(21),3(23),4,6,9(22),10,12,17,19-nonaen-16-one trifluoroacetate]	0.056 µM	> 0.1 µM	> 0.1 µM	> 0.1 µM	–	–	–	–	–	–	IC50 ([4]; 90 μM ATP): 6.18 µM
O=C(CC1CCN(S(=O)(=O)c2ccccc2Cl)CC1)Nc1ccc2cc1CCc1cncc(c1)Nc1ncc(Cl)c(n1)N2 [Example A223, N-[6-Chloro-2,4,8,18,22-pentaazatetracyclo[14.3.1.1(3,7).1(9,13)]docosa-1(20),3(22),4,6,9(21),10,12,16,18-nonaen-12-yl]-2-{1-[(2-chlorophenyl)sulfonyl]piperidin-4-yl}acetamide bis(trifluoroacetate)]	0.09 µM	0.005 µM	> 0.4 µM	> 0.4 µM	41%	–	–	–	–	–	–
Cc1cc(N2CCC(CC(=O)Nc3ccc4cc3CCc3cccc(c3)Nc3ncc(Cl)c(n3)N4)CC2)no1 [Example A248, N-[6-Chloro-2,4,8,22-tetraazatetracyclo[14.3.1.1(3,7).1(9,13)]docosa-1(20),3(22),4,6,9(21),10,12,16,18-nonaen-12-yl]-2-[1-(5-methylisoxazol-3-yl)piperidin-4-yl]acetamide trifluoroacetate]	0.03 µM	0.0087 µM	0.082 µM	> 0.2 µM	50%	–	–	–	–	–	–
O=C(CC1CCN(C(=O)Nc2ccccc2)CC1)Nc1ccc2cc1CCc1cncc(c1)Nc1ncc(Cl)c(n1)N2 [Example A77, 4-(2-{[6-Chloro-2,4,8,18,22-pentaazatetracyclo[14.3.1.1(3,7).1(9,13)]docosa-1(20),3(22),4,6,9(21),10,12,16,18-nonaen-12-yl]amino}-2-oxoethyl)-N-phenylpiperidine-1-carboxamide bis(trifluoroacetate)]	0.0007 µM	0.0006 µM	0.004 µM	0.035 µM	35%	–	–	–	–	–	–
Clc1cnc2nc1Nc1cccc(c1)CCSc1cccc(c1)N2 [Example D19, 6-Chloro-16-thia-2,4,8,23-tetraazatetracyclo[15.3.1.1(3,7).1(9,13)]tricosa-1(21),3(23),4,6,9(22),10,12,17,19-nonaene hydrochloride]	–	–	–	–	–	–	–	–	–	–	IC50 ([1]; Table D1): 0.016 µM; IC50 ([2]; Table D1): 0.15 µM; IC50 (TYK2; Table D1): 0.149 µM; IC50 ([3]; Table D1): 0.039 µM; IC50 ([4]; Table D1, 90 μM ATP): 0.562 µM

Continued, in another order:

IC50 [1, 5]	IC50 [2, 6]	IC50 (TYK2)	IC50 [3, 7]	ALK % of inhibition at a concentration of 500 nM or 1 mM [4, 8]	IC50 ([1]; Table B1)	IC50 ([2]; Table B1)	IC50 (TYK2; Table B1)	IC50 ([3]; Table B1)	ALK % of inhibition at a concentration of 500 nM or 1 mM [4, 9]	SMILES	also measured
–	–	–	–	–	0.091 µM	0.013 µM	> 0.4 µM	> 0.4 µM	–	CC(=O)N1CCC(CN(C)Cc2ccc3cc2CCc2cncc(c2)Nc2ncc(Cl)c(n2)N3)CC1 [Example B346, 1-(1-Acetylpiperidin-4-yl)-N-{[6-chloro-2,4,8,18,22-pentaazatetracyclo[14.3.1.1(3,7).1(9,13)]docosa-1(20),3(22),4,6,9(21),10,12,16,18-nonaen-12-yl]methyl}-N-methylmethanamine tris(trifluoroacetate)]	ALK % of inhibition at a concentration of 500 nM or 1 mM ([4]; percentage inhibition of the example compound at a concentration of 500 nM or 1 mM (not specified which)): 38%
–	–	–	–	–	0.025 µM	0.012 µM	0.0034 µM	0.021 µM	23%	O=C(NCc1ccncc1)Nc1ccc2cc1CCc1cccc(c1)Nc1ncc(Cl)c(n1)N2 [Example B246, N-[6-Chloro-2,4,8,22-tetraazatetracyclo[14.3.1.1(3,7).1(9,13)]docosa-1(20),3(22),4,6,9(21),10,12,16,18-nonaen-12-yl]-N′-(pyridin-4-ylmethyl)ureabis(trifluoroacetate)]	–
–	–	–	–	–	0.01 µM	0.0049 µM	0.024 µM	0.083 µM	29%	O=C(NCCN1CCCCC1)Nc1ccc2cc1CCc1cccc(c1)Nc1ncc(Cl)c(n1)N2 [Example B258, N-[6-Chloro-2,4,8,22-tetraazatetracyclo[14.3.1.1(3,7).1(9,13)]docosa-1(20),3(22),4,6,9(21),10,12,16,18-nonaen-12-yl]-N′-(2-piperidin-1-ylethyl)urea bis(trifluoroacetate)]	–
–	–	–	–	–	0.017 µM	0.0016 µM	0.034 µM	0.228 µM	12%	O=C(Nc1ccc2cc1CCc1cccc(c1)Nc1ncc(Cl)c(n1)N2)N[C@H]1CCN(C(=O)c2ccccc2)C1 [Example B170, N-[(3S)-1-Benzoylpyrrolidin-3-yl]-N′-[6-chloro-2,4,8,22-tetraazatetracyclo[14.3.1.1(3,7).1(9,13)]docosa-1(20),3(22),4,6,9(21),10,12,16,18-nonaen-12-yl]urea trifluoroacetate]	–
–	–	–	–	–	0.01 µM	0.0045 µM	0.019 µM	0.026 µM	39%	COc1ccc(NC(=O)Nc2ccc3cc2CCc2cccc(c2)Nc2ncc(Cl)c(n2)N3)cc1 [Example B101, N-[6-Chloro-2,4,8,22-tetraazatetracyclo[14.3.1.1(3,7).1(9,13)]docosa-1(20), 3(22),4,6,9(21),10,12,16,18-nonaen-12-yl]-N′-(4-methoxyphenyl)urea trifluoroacetate]	–
–	–	–	–	–	0.112 µM	0.235 µM	0.312 µM	0.45 µM	–	O=C(c1cc2cc(c1)Nc1nc(ncc1Cl)Nc1cccc(c1)CC2)N1CCCC(O)C1 (stereo not shown) [Example B12, 1-{[6-Chloro-2,4,8,22-tetraazatetracyclo[14.3.1.1(3,7).1(9,13)]docosa-1(20), 3(22),4,6,9(21),10,12,16,18-nonaen-11-yl]carbonyl}piperidin-3-ol trifluoroacetate]	IC50 ([4]; Table B1, cells without percent sign): > 10 µM
–	–	–	–	–	0.0035 µM	0.0031 µM	0.01 µM	0.026 µM	20%	CC(C)NC(=O)Nc1ccc2cc1CCc1cccc(c1)Nc1ncc(Cl)c(n1)N2 [Example B116, N-[6-Chloro-2,4,8,22-tetraazatetracyclo[14.3.1.1(3,7).1(9,13)]docosa-1(20), 3(22),4,6,9(21),10,12,16,18-nonaen-12-yl]-N′-isopropylurea trifluoroacetate]	–
–	–	–	–	–	0.0024 µM	0.002 µM	0.0082 µM	0.026 µM	18%	O=C(NCCN1CCOCC1)Nc1ccc2cc1CCc1cccc(c1)Nc1ncc(Cl)c(n1)N2 [Example B254, N-[6-Chloro-2,4,8,22-tetraazatetracyclo[14.3.1.1(3,7).1(9,13)]docosa-1(20),3(22),4,6,9(21),10,12,16,18-nonaen-12-yl]-N′-(2-morpholin-4-ylethyl)urea bis(trifluoroacetate)]	–
